≈ marks a conversion by molar mass, not a printed value.
Experiments:
Escherichia coli = experiment: in vitro antibacterial evaluation, MIC by broth dilution; assay type: cell-based; details: 18 hours at 35° C.
[1] = system: Staphylococcus aureus-SMITH (GC 4543); experiment: acute lethal infection in mice; assay type: in vivo; details: acute lethal infection, female CD-1 mice, intraperitoneal challenge, intravenous 30 min. after infection, 7 day survival
How it was run: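 Mice (female CD-1, 20+/−2 gm) receive bacteria ip in broth or hog gastric mucin, then test agent iv after 30 min. Median effective dose is calculated from 7 day survival pooled across 3 tests.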

Enterococcus sp. = experiment: in vitro antibacterial evaluation, MIC by broth dilution; assay type: cell-based; details: broth dilution, 18 hours at 35° C.
How it was run: (§1)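 Read-out: the lowest concentration at which the test strain fails to grow. Serial dilutions (64-0.06 μg/mL) in Muller-Hinton II […], 5×10^5 CFU/mL inoculum, NCCLS M7-A2 procedure.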

Streptococcus sp. = experiment: as above; assay type: cell-based; details: broth dilution, 18 hours at 35° C.
How it was run: as §1

Staphylococcus sp. = experiment: as above; assay type: cell-based; details: broth dilution, 18 hours at 35° C.
How it was run: as §1

## CCCOc1ccc(COCC2OC(OC3C(CO)OC(Oc4ccc(CC5NC(=O)C(C(C)c6ccccc6)NC(=O)CNC(=O)C(CO)NC(=O)C(C(O)C6CNC(=N)N6C6OC(CO)C(O)C(O)C6O)NC(=O)C(C(O)C6CNC(=N)N6)NC5=O)cc4)C(O)C3O)C(O)C(O)C2O)cc1 (stereo not drawn) [Example 235, Cyclo[glycyl-β-methylphenylalanyl-O-[4-O-[6-O-(4-propoxybenzyl)hexopyranosyl]hexopyranosyl]tyrosyl-3-(2-iminoimidazolidin-4-yl)seryl-3-(3-hexopyranosyl-2-iminoimidazolidin-4-yl)serylseryl]]
Escherichia coli
  MIC Escherichia coli (GC 4560): 0.5 to 1 µg/mL
[1]
  median effective dose (ED50), Staphylococcus aureus-SMITH (GC 4543): 0.59 mg/kg
Enterococcus sp.
  MIC Enterococcus avium (GC 4558): 4 µg/mL (≈ 2.77 µM)
  MIC Enterococcus faecalis (ATCC 29212): 4 µg/mL (≈ 2.77 µM)
  MIC Enterococcus faecalis (GC 2242): 4 µg/mL (≈ 2.77 µM)
  MIC Enterococcus faecalis (GC 2691): 4 µg/mL (≈ 2.77 µM)
  MIC Enterococcus faecalis (GC 3059): 4 to 8 µg/mL
  MIC Enterococcus faecalis (GC 4552): 4 µg/mL (≈ 2.77 µM)
  MIC Enterococcus faecalis (GC 4553): 4 µg/mL (≈ 2.77 µM)
  MIC Enterococcus faecalis (GC 4554): 4 to 8 µg/mL
  MIC Enterococcus faecalis (GC 6189): 4 µg/mL (≈ 2.77 µM)
  MIC Enterococcus faecium (GC 2243): 4 µg/mL (≈ 2.77 µM)
  MIC Enterococcus faecium (GC 4556): 4 µg/mL (≈ 2.77 µM)
  MIC Enterococcus faecium (GC 4557): 0.5 to 2 µg/mL
Enterococcus sp.; strain ATCC 29212
  MIC Enterococcus faecalis (ATCC 29212): 4 µg/mL (≈ 2.77 µM)
Enterococcus sp.; strain GC 2243
  MIC Enterococcus faecium (GC 2243): 4 µg/mL (≈ 2.77 µM)
Enterococcus sp.; strain GC 4552
  MIC Enterococcus faecalis (GC 4552): 4 µg/mL (≈ 2.77 µM)
Enterococcus sp.; strain GC 4553
  MIC Enterococcus faecalis (GC 4553): 4 µg/mL (≈ 2.77 µM)
Enterococcus sp.; strain GC 4554
  MIC Enterococcus faecalis (GC 4554): 4 to 8 µg/mL
Enterococcus sp.; strain GC 4556
  MIC Enterococcus faecium (GC 4556): 4 µg/mL (≈ 2.77 µM)
Enterococcus sp.; strain GC 4557
  MIC Enterococcus faecium (GC 4557): 0.5 to 2 µg/mL
Enterococcus sp.; strain GC 4558
  MIC Enterococcus avium (GC 4558): 4 µg/mL (≈ 2.77 µM)
Enterococcus sp.; strain GC 6189
  MIC Enterococcus faecalis (GC 6189): 4 µg/mL (≈ 2.77 µM)
Enterococcus sp.; inoculum 5×10^5 CFU/mL, strain GC 2242
  MIC Enterococcus faecalis (GC 2242): 4 µg/mL (≈ 2.77 µM)
Enterococcus sp.; inoculum 5×10^5 CFU/mL, strain GC 2691
  MIC Enterococcus faecalis (GC 2691): 4 µg/mL (≈ 2.77 µM)
Enterococcus sp.; inoculum 5×10^5 CFU/mL, strain GC 3059
  MIC Enterococcus faecalis (GC 3059): 4 to 8 µg/mL
Streptococcus sp.
  MIC Streptococcus agalactiae (GC 4564): 0.25 to 0.5 µg/mL
  MIC Streptococcus pneumoniae (ATCC 6301): 0.12 µg/mL (≈ 0.0831 µM)
  MIC Streptococcus pneumoniae (GC 1894): <0.06 µg/mL
  MIC Streptococcus pneumoniae (GC 4565): <0.06 to 0.12 µg/mL
  MIC Streptococcus pyogenes (GC 4563): 0.25 µg/mL (≈ 0.173 µM)
Streptococcus sp.; inoculum 5×10^5 CFU/mL, strain ATCC 6301
  MIC Streptococcus pneumoniae (ATCC 6301): 0.12 µg/mL (≈ 0.0831 µM)
Streptococcus sp.; inoculum 5×10^5 CFU/mL, strain GC 1894
  MIC Streptococcus pneumoniae (GC 1894): <0.06 µg/mL
Streptococcus sp.; inoculum 5×10^5 CFU/mL, strain GC 4563
  MIC Streptococcus pyogenes (GC 4563): 0.25 µg/mL (≈ 0.173 µM)
Streptococcus sp.; inoculum 5×10^5 CFU/mL, strain GC 4564
  MIC Streptococcus agalactiae (GC 4564): 0.25 to 0.5 µg/mL
Streptococcus sp.; inoculum 5×10^5 CFU/mL, strain GC 4565
  MIC Streptococcus pneumoniae (GC 4565): <0.06 to 0.12 µg/mL
Staphylococcus sp.
  MIC Coagulase Negative Staphylococcus (GC 4547): 0.5 to 1 µg/mL
  MIC Coagulase Negative Staphylococcus (GC 4548): 0.25 to 0.5 µg/mL
  MIC Coagulase Negative Staphylococcus (GC 4549): 0.25 to 0.5 µg/mL
  MIC Coagulase Negative Staphylococcus (GC 4551): 0.5 to 1 µg/mL
  MIC Coagulase Negative Staphylococcus (GC 6257): 0.25 to 0.5 µg/mL
  MIC Staphylococcus aureus (ATCC 29213): 0.5 to 1 µg/mL
  MIC Staphylococcus aureus (GC 1131): 1 to 2 µg/mL
  MIC Staphylococcus aureus (GC 3051): 0.5 to 2 µg/mL
  MIC Staphylococcus aureus (GC 3053): 1 to 2 µg/mL
  MIC Staphylococcus aureus (GC 4541): 0.5 to 1 µg/mL
  MIC Staphylococcus aureus (GC 4542): 0.5 to 2 µg/mL
  MIC Staphylococcus aureus (GC 4544): 1 to 2 µg/mL
  MIC Staphylococcus aureus (GC 4545): 1 to 2 µg/mL
  MIC Staphylococcus aureus-SMITH (GC 4543): 0.5 to 1 µg/mL
  MIC Staphylococcus haemolyticus (GC 4546): 0.25 to 0.5 µg/mL
Staphylococcus sp.; strain ATCC 29213
  MIC Staphylococcus aureus (ATCC 29213): 0.5 to 1 µg/mL
Staphylococcus sp.; strain GC 1131
  MIC Staphylococcus aureus (GC 1131): 1 to 2 µg/mL
Staphylococcus sp.; strain GC 3051
  MIC Staphylococcus aureus (GC 3051): 0.5 to 2 µg/mL
Staphylococcus sp.; strain GC 3053
  MIC Staphylococcus aureus (GC 3053): 1 to 2 µg/mL
Staphylococcus sp.; strain GC 4541
  MIC Staphylococcus aureus (GC 4541): 0.5 to 1 µg/mL
Staphylococcus sp.; strain GC 4542
  MIC Staphylococcus aureus (GC 4542): 0.5 to 2 µg/mL
Staphylococcus sp.; strain GC 4543
  MIC Staphylococcus aureus-SMITH (GC 4543): 0.5 to 1 µg/mL
Staphylococcus sp.; strain GC 4544
  MIC Staphylococcus aureus (GC 4544): 1 to 2 µg/mL
Staphylococcus sp.; strain GC 4545
  MIC Staphylococcus aureus (GC 4545): 1 to 2 µg/mL
Staphylococcus sp.; strain GC 4546
  MIC Staphylococcus haemolyticus (GC 4546): 0.25 to 0.5 µg/mL
Staphylococcus sp.; strain GC 4547
  MIC Coagulase Negative Staphylococcus (GC 4547): 0.5 to 1 µg/mL
Staphylococcus sp.; strain GC 4548
  MIC Coagulase Negative Staphylococcus (GC 4548): 0.25 to 0.5 µg/mL
Staphylococcus sp.; strain GC 4549
  MIC Coagulase Negative Staphylococcus (GC 4549): 0.25 to 0.5 µg/mL
Staphylococcus sp.; strain GC 4551
  MIC Coagulase Negative Staphylococcus (GC 4551): 0.5 to 1 µg/mL
Staphylococcus sp.; strain GC 6257
  MIC Coagulase Negative Staphylococcus (GC 6257): 0.25 to 0.5 µg/mL

Source: US6914045B2, “Glycopeptide antibiotics” (Wyeth Holdings Corporation, priority 2001, dated 2005)
